The values that follow come from patent US11814376B2, “Hepatitis b core protein modulators” (Assembly Biosciences, Inc., priority 2015, dated 2023).

In data set [1] the test system is HBV viral load in AD38 cells. Kind of data set: Viral load production in AD38 cells, quantitative PCR of the core sequence in supernatant. It counts as cell-based. The settings on record: Hepatitis B virus, 144 h, 10 μM compound, 6 days at 37° C., supernatant qPCR, relative to DMSO control; read-out: AD38 Viral Load (%) (VL with cmpd/VL in DMSO control) at 10 μM. The protocol: (§1) Example 2: Assay Measuring Activity of Compounds on Viral Production in and on Viability of AD38 Cells
(§2) AD38 cells were then re-suspended with 10 mL of Treatment Medium and counted. Wells of a collagen coated 96-well NUNC microtiter plate were seeded at 50,000/well in 180 μL of Treatment Medium, and 20 μL of in treatment media with either 10% DMSO (Control) or a 10× solution of compound in 10% DMSO was added. Plates were incubated for 6 days at 37° C.
Viral load production was assayed by quantitative PCR of the core sequence. […] The PCR mixture was incubated at 45° C. for 5 minutes, then 95° C. for 10 min, followed by 40 cycles of 10 seconds at 95° C. and 20 seconds at 60° C. Viral load was quantitated against known standards by using ViiA™ 7 Software. Viral load in the supernatant from wells with treated cells were compared against viral load in supernatant from DMSO control wells (>3 per plate).

The next data set relates to AD38 cells. Kind of data set: Viability of AD38 cells (Promega CellTiter-Glo). In kind it is cell-based. Conditions: 10 μM compound, 6 days, CellTiter-Glo luminescence normalized to DMSO control (100%). The procedure: as §1, §2
At the end of compound treatment period cell viability was assessed using a Promega CellTiter-Glo protocol. All supernatant was removed the previously treated 96-well microtiter plate, and 50 μL Tetracycline-free treatment medium (DMEM/F12 (1:1), 1× Pen/step (cat #: 30-002-CL, Mediatech, Inc), with 2% FBS, Tet-system approved (cat #: 631106, Clontech), and 1% DMSO was added back to each well. Another 50 μL of CellTiter-Glo reagent solution (Promega, G7573) was then added at room temperature and the contents mixed for 2 minutes on an orbital shaker to induce cell lysis. This was followed by incubation at room temperature for 10 minutes to stabilize the luminescent signal. The luminescence was recorded for 0.2 seconds per well on a Tecan multimode plate reader (Infinite M1000 pro). The luminescent signal from each well was normalized against that of untreated (DMSO) control wells. All results were reported percent viability (with controls being 100%).
For orientation: In ATP-based viability assays light output follows the ATP content of the culture.

`CC(NC(=O)c1ccc2c(c1)NC(=O)c1ccccc1S2)c1cncs1` (racemic) [compound 1432, 11-oxo-N-(1-(thiazol-5-yl)ethyl)-10, 11-dihydrodibenzo [b, f] [1, 4] thiazepine-8-carboxamide]: the activity at 10 µM in data set [1] was determined as 21.8%. For the same molecule, in the data set on AD38 cells, the “AD38 Viability Normalized Result (cmpd/DMSO %) at 10 μM” value is reported as 101%.

Take `COC(=O)c1ccc(-c2ncc(CNC(=O)c3ccc4c(c3)NC(=O)c3ccccc3S4)s2)cc1` [1599-A, methyl 4-(5-((11-oxo-10, 11-dihydrodibenzo [b, f] [1, 4]thiazepine-8-carboxamido)methyl)thiazol-2-yl) benzoate]: in data set [1], the activity at 10 µM was 50.9%. The “AD38 Viability Normalized Result (cmpd/DMSO %) at 10 μM” value in the data set on AD38 cells came to 98%.

With `COC(=O)c1ccc(-c2ncc(CNC(=O)c3ccc4c(c3)NC(=O)c3ccccc3O4)s2)cc1` [1612-A, methyl 4-(5-((11-oxo-10, 11-dihydrodibenzo [b, f] [1, 4]oxazepine-8-carboxamido)methyl)thiazol-2-yl) benzoate], in data set [1], the activity at 10 µM is 12.4%. In addition, in the data set with AD38 cells, the “AD38 Viability Normalized Result (cmpd/DMSO %) at 10 μM” value came out at 101%.

`O=C(NCc1cnc(OCCOC2CCCCO2)s1)c1ccc2c(c1)NC(=O)c1ccccc1O2` (stereo not drawn) [1613-A, 11-oxo-N-((2-(2-((tetrahydro-2H-pyran-2-yl)oxy)ethoxy)thiazol-5-yl)methyl)-10, 11-dihydrodibenzo [b, f] [1, 4] oxazepine-8-carboxamide]: the activity at 10 µM in data set [1] came out at 11.5%. Further, the “AD38 Viability Normalized Result (cmpd/DMSO %) at 10 μM” value in the data set on AD38 cells is listed as 95%.

Take `O=C(NCc1cnc(-c2ccc([N+](=O)[O-])cc2)s1)c1ccc2c(c1)NC(=O)c1ccccc1S2(=O)=O` [1645-A]: in data set [1], the activity at 10 µM turned out to be 0.3%. The “AD38 Viability Normalized Result (cmpd/DMSO %) at 10 μM” value in the data set on AD38 cells was 98%.

For the molecule `Nc1ccc(-c2ncc(CNC(=O)c3ccc4c(c3)NC(=O)c3ccccc3S4(=O)=O)s2)cc1` [1645-B, N-((2-(4-aminophenyl)thiazol-5-yl)methyl)-11-oxo-10, 11-dihydrodibenzo [b, f] [1, 4] thiazepine-8-carboxamide 5,5-dioxide], the activity at 10 µM in data set [1] amounted to 77.8%. Further, the “AD38 Viability Normalized Result (cmpd/DMSO %) at 10 μM” value in the data set on AD38 cells came out at 100%.

Regarding `N#Cc1ccc(-c2ncc(CNC(=O)c3ccc4c(c3)NC(=O)c3ccccc3S4(=O)=O)s2)cc1` [1654-A, N-((2-(4-cyanophenyl)thiazol-5-yl)methyl)-11-oxo-10, 11-dihydrodibenzo [b, f] [1, 4] thiazepine-8-carboxamide 5,5-dioxide], in data set [1], the activity at 10 µM was found to be 2.6%. Further, in the data set with AD38 cells, the “AD38 Viability Normalized Result (cmpd/DMSO %) at 10 μM” value is 68%.

With `COc1ncc(-c2ncc(CNC(=O)c3ccc4c(c3)NC(=O)c3ccccc3S4(=O)=O)s2)cn1` [1671-A, N-((2-(2-methoxypyrimidin-5-yl)thiazol-5-yl)methyl)-11-oxo-10, 11-dihydrodibenzo [b, f] [1, 4] thiazepine-8-carboxamide 5,5-dioxide], in data set [1], the activity at 10 µM was 0.7%. Moreover, the “AD38 Viability Normalized Result (cmpd/DMSO %) at 10 μM” value in the data set with AD38 cells amounted to 111%.

Consider `N#Cc1cccc(-c2ncc(CNC(=O)c3ccc4c(c3)NC(=O)c3ccccc3S4(=O)=O)s2)c1` [1677-A, N-((2-(3-cyanophenyl)thiazol-5-yl)methyl)-11-oxo-10, 11-dihydrodibenzo [b, f] [1, 4] thiazepine-8-carboxamide 5,5-dioxide], for which the activity at 10 µM in data set [1] is 2.3%. The “AD38 Viability Normalized Result (cmpd/DMSO %) at 10 μM” value with AD38 cells turned out to be 103%.

Consider `NC(=O)c1cccc(-c2ncc(CNC(=O)c3ccc4c(c3)NC(=O)c3ccccc3S4(=O)=O)s2)c1` [1677-B, N-((2-(3-carbamoylphenyl)thiazol-5-yl)methyl)-11-oxo-10, 11-dihydrodibenzo [b, f] [1, 4] thiazepine-8-carboxamide 5,5-dioxide], for which the activity at 10 µM in data set [1] worked out at 2.4%. Besides, the “AD38 Viability Normalized Result (cmpd/DMSO %) at 10 μM” value in the data set with AD38 cells is 89%.

For `COc1ncc(-c2ncc(CNC(=O)c3ccc4c(c3)NC(=O)c3ccccc3O4)s2)cn1` [1709-A, N-((2-(2-methoxypyrimidin-5-yl)thiazol-5-yl)methyl)-11-oxo-10, 11-dihydrodibenzo [b, f] [1, 4] oxazepine-8-carboxamide], in data set [1], the activity at 10 µM turned out to be 29.5%. The “AD38 Viability Normalized Result (cmpd/DMSO %) at 10 μM” value in the data set on AD38 cells amounted to 106%.

Regarding `N#Cc1cccc(-c2ncc(CNC(=O)c3ccc4c(c3)NC(=O)c3ccccc3O4)s2)c1` [1714-A], the activity at 10 µM in data set [1] was 49.2%. Besides, in the data set with AD38 cells, the “AD38 Viability Normalized Result (cmpd/DMSO %) at 10 μM” value came to 106%.

`COc1ccc(-c2ncc(CNC(=O)c3ccc4c(c3)NC(=O)c3ccccc3O4)s2)cc1C` [1736-A]: in data set [1], the activity at 10 µM came out at 14.1%. Also, the “AD38 Viability Normalized Result (cmpd/DMSO %) at 10 μM” value in the data set with AD38 cells was found to be 97%.

Regarding `COc1c(C)cc(-c2ncc(CNC(=O)c3ccc4c(c3)NC(=O)c3ccccc3O4)s2)cc1C` [1738-A], the activity at 10 µM in data set [1] was found to be 1.8%. Moreover, the “AD38 Viability Normalized Result (cmpd/DMSO %) at 10 μM” value in the data set on AD38 cells was 104%.

For `N#Cc1ccc(-c2ncc(CNC(=O)c3ccc4c(c3)NC(=O)c3ccccc3O4)s2)cc1` [1770-A, N-((2-(4-cyanophenyl)thiazol-5-yl)methyl)-11-oxo-10, 11-dihydrodibenzo [b, f] [1, 4] oxazepine-8-carboxamide], the activity at 10 µM in data set [1] stood at 29.8%. The “AD38 Viability Normalized Result (cmpd/DMSO %) at 10 μM” value in the data set with AD38 cells came to 100%.

`COc1ccc(-c2ncc(CNC(=O)c3ccc4c(c3)NC(=O)c3ccccc3S4(=O)=O)s2)cc1C` [1804-A, N-((2-(4-methoxy-3-methylphenyl)thiazol-5-yl)methyl)-11-oxo-10, 11-dihydrodibenzo [b, f] [1, 4] thiazepine-8-carboxamide 5,5-dioxide]: the activity at 10 µM in data set [1] was 6.6%. Also, the “AD38 Viability Normalized Result (cmpd/DMSO %) at 10 μM” value in the data set on AD38 cells was determined as 90%.

`COc1c(C)cc(-c2ncc(CNC(=O)c3ccc4c(c3)NC(=O)c3ccccc3S4(=O)=O)s2)cc1C` [1806-A, N-((2-(4-methoxy-3,5-dimethylphenyl)thiazol-5-yl)methyl)-11-oxo-10, 11-dihydrodibenzo [b, f] [1, 4] thiazepine-8-carboxamide 5,5-dioxide]: the activity at 10 µM in data set [1] turned out to be 0.3%. Besides, in the data set on AD38 cells, the “AD38 Viability Normalized Result (cmpd/DMSO %) at 10 μM” value was determined as 66%.

`COc1ccc(Cc2ncc(CNC(=O)c3ccc4c(c3)NC(=O)c3ccccc3S4(=O)=O)s2)cc1` [1823-A, N-((2-(4-methoxybenzyl)thiazol-5-yl)methyl)-11-oxo-10, 11-dihydrodibenzo [b, f] [1, 4] thiazepine-8-carboxamide 5,5-dioxide]: the activity at 10 µM in data set [1] worked out at 5.8%. Besides, in the data set with AD38 cells, the “AD38 Viability Normalized Result (cmpd/DMSO %) at 10 μM” value is recorded as 92%.

`COc1ccc(Cc2ncc(CNC(=O)c3ccc4c(c3)NC(=O)c3ccccc3O4)s2)cc1` [1835-A, N-((2-(4-methoxybenzyl)thiazol-5-yl)methyl)-11-oxo-10, 11-dihydrodibenzo [b, f] [1, 4] oxazepine-8-carboxamide]: the activity at 10 µM in data set [1] is 0.3%. In addition, the “AD38 Viability Normalized Result (cmpd/DMSO %) at 10 μM” value with AD38 cells stood at 89%.

`COc1ccc(-c2ncc(CNC(=O)c3ccc4c(c3)NC(=O)c3ccccc3S4(=O)=O)s2)nc1` [1879-A]: the activity at 10 µM in data set [1] was determined as 2.5%. Also, in the data set on AD38 cells, the “AD38 Viability Normalized Result (cmpd/DMSO %) at 10 μM” value is listed as 121%.

Regarding `COc1ccnc(-c2ncc(CNC(=O)c3ccc4c(c3)NC(=O)c3ccccc3S4(=O)=O)s2)c1` [1880-A, N-((2-(4-methoxypyridin-2-yl)thiazol-5-yl)methyl)-11-oxo-10, 11-dihydrodibenzo [b, f] [1, 4] thiazepine-8-carboxamide 5,5-dioxide], in data set [1], the activity at 10 µM amounted to 0.7%. The “AD38 Viability Normalized Result (cmpd/DMSO %) at 10 μM” value in the data set on AD38 cells was found to be 124%.

In the case of `CC(C)(C)OC(=O)NC1CCN(Cc2ncc(CNC(=O)c3ccc4c(c3)NC(=O)c3ccccc3S4(=O)=O)s2)CC1` [1885-A], in data set [1], the activity at 10 µM stood at 4.5%. The “AD38 Viability Normalized Result (cmpd/DMSO %) at 10 μM” value with AD38 cells amounted to 107%.

As to `COc1cc2c(cc1C(=O)NCc1cnc(-c3ccc(C#N)cc3)s1)NC(=O)c1ccccc1S2(=O)=O` [1901-A, N-((2-(4-cyanophenyl)thiazol-5-yl)methyl)-7-methoxy-11-oxo-10, 11-dihydrodibenzo [b, f] [1, 4] thiazepine-8-carboxamide 5,5-dioxide], the activity at 10 µM in data set [1] stood at 3%. The “AD38 Viability Normalized Result (cmpd/DMSO %) at 10 μM” value with AD38 cells is 118%.

As for `N#Cc1ccc(-c2ncc(CNC(=O)c3cc4c(cc3O)S(=O)(=O)c3ccccc3C(=O)N4)s2)cc1` [1901-B, N-((2-(4-cyanophenyl)thiazol-5-yl)methyl)-7-hydroxy-11-oxo-10, 11-dihydrodibenzo [b, f] [1, 4] thiazepine-8-carboxamide 5,5-dioxide], the activity at 10 µM in data set [1] is 69.4%. Further, the “AD38 Viability Normalized Result (cmpd/DMSO %) at 10 μM” value in the data set on AD38 cells was found to be 108%.
